Test results taken from ChEMBL document CHEMBL1147886, “Synthesis and pharmacological evaluation of novel conformationally constrained homologues of glutamic acid” (Eur J Med Chem, 2007).

Assays:
Assay type in all cases: cell membranes
[1] = biological target: Glutamate NMDA receptor; assay: Displacement of [3H]CGP-39653 from NMDA receptor in rat cortical membrane
[2] = Displacement of [3H]AMPA from AMPA receptor in rat cortical membrane
[3] = Displacement of [3H]KA from KA receptor in rat cortical membrane

Compound | Ki [1] | IC50 [2] | IC50 [3]
N[C@]1(C(=O)O)C[C@H]1[C@H]1CC(C(=O)O)=NO1 (racemic) | > 100 µM | > 100 µM | > 100 µM
N[C@]1(C(=O)O)C[C@H]1[C@@H]1CC(C(=O)O)=NO1 (racemic) | 34 µM | > 100 µM | > 100 µM
O=C(O)C1=NO[C@@]2(CN[C@H](C(=O)O)C2)C1 | > 100 µM | > 100 µM | > 100 µM
O=C(O)C1=NO[C@@]2(CN[C@@H](C(=O)O)C2)C1 | > 100 µM | > 100 µM | > 100 µM
N[C@]1(C(=O)O)C[C@H]1[C@@H]1CC(O)=NO1 (racemic) | 13 µM | > 100 µM | > 100 µM
N[C@H](C[C@@H]1CC(C(=O)O)=NO1)C(=O)O (racemic) | – | > 100 µM | > 100 µM
N[C@H](C[C@H]1CC(C(=O)O)=NO1)C(=O)O (racemic) | – | > 100 µM | > 100 µM
N[C@]1(C(=O)O)C[C@H]1[C@H]1CC(O)=NO1 (racemic) | > 100 µM | > 100 µM | > 100 µM
O=C(O)[C@@H]1C[C@]2(CN1)CC(O)=NO2 | > 100 µM | > 100 µM | > 100 µM
O=C(O)C1=NO[C@]2(CN[C@H](C(=O)O)C2)C1 | > 100 µM | > 100 µM | > 100 µM
O=C(O)[C@@H]1C[C@@]2(CN1)CC(O)=NO2 | > 100 µM | > 100 µM | > 100 µM
O=C(O)[C@H]1C[C@@]2(CN1)CC(O)=NO2 | > 100 µM | > 100 µM | > 100 µM
N[C@@H](CCCP(=O)(O)O)C(=O)O | – | > 100 µM | > 100 µM
N[C@H](CCCP(=O)(O)O)C(=O)O | – | > 100 µM | > 100 µM
O=C(O)[C@H]1C[C@]2(CN1)CC(O)=NO2 | > 100 µM | > 100 µM | > 100 µM
O=C(O)C1=NO[C@]2(CN[C@@H](C(=O)O)C2)C1 | > 100 µM | > 100 µM | > 100 µM
